Read-outs that look alike come from different tables or passages of the source.
Tests used:
[1] = Subcutaneous PBPK model predictions vs observed plasma concentrations in Mtb infected mice; assay type: in vivo, BALB/c mice; conditions: SC dose-ranging and dose-fractionation studies
[2] = cited from earlier work; for AUCinf Liver Observed / AUCinf Lung Observed / AUCinf Observed / AUCinf Spleen Observed: healthy mice; for AUCinf Observed: plasma
[3] = Pharmacokinetic studies in healthy rats; assay type: in vivo; conditions: male, Sprague-Dawley, rat, plasma, IV SD 10 mg/kg, generated in this study, read-out: AUCinf Observed
Description: Urine samples were collected at predetermined time intervals (0–6, 6–10, 10–24, 24–48 h) up to 48 h after dosing, volumes were recorded, and samples were processed by protein precipitation and analyzed by LC-MS/MS. The fraction of drug excreted unchanged (fe) in urine at each time interval and a cumulative fe were calculated.
An additional single dose intravenous study of spectinamide 1599 with destructive sampling was performed to obtain the tissue PK profiles in rats. In this study, groups of four rats (two male and two female) were euthanized either at 15 min or at 4 h after dosing, and blood, lung, liver, spleen, and kidneys were collected. For tissue samples, the tissues were weighed and homogenized in four volumes of phosphate buffered saline (1× PBS) and stored at −70 °C until LC-MS/MS analysis.
Sample preparation was performed by protein precipitation using methanol. […]
An API 4500 triple quadruple mass spectrometer (Applied Biosystems, Foster City, CA, USA) equipped with a turbospray ion source was operated in the positive ion mode. Selected reaction monitoring using precursor→product ion combinations of m/z 487.2→207.1, 418→207.1, and 365.1→333.2 was used for quantification of spectinamides 1599, 1810 and the IS spectinomycin, respectively.

[4] = Fraction unbound in epithelial lining fluid calculated by Poulin and Theil equation, rat; conditions: epithelial lining fluid (calculated), calculated from fu in plasma and albumin ratio plasma/ELF, read-out: fuELF fraction unbound in epithelial lining fluid
Description: (§1) For intravenous administration, the bolus dose was assumed to be mixed instantaneously into the venous blood. For subcutaneous administration, the dose was administered as an external compartment, absorbed into the venous compartment via a first-order absorption rate constant and a bioavailability component. For intrapulmonary aerosol administration, we have modified the lung tissue by adding the epithelial lining fluid (ELF) sub-compartment, as shown in Figure 2. The physiological volume of the ELF sub-compartment was obtained from the literature. The dose was administered as an external compartment, absorbed into the ELF compartment via a first-order absorption rate constant and a bioavailability component. The compound was assumed to be bound to the ELF proteins, and only the unbound fraction was distributed to the other sub-compartments of the lungs and ultimately to the systemic circulation. The fraction unbound in ELF was calculated from the fraction unbound in plasma and the albumin ratio between plasma and ELF using the equation described by Poulin and Theil.

[5] = Minimalistic PBPK model, mouse (fitting and simulation)
[6] = Fraction unbound in epithelial lining fluid calculated by Poulin and Theil equation, mouse; conditions: epithelial lining fluid (calculated), calculated from fu in plasma and albumin ratio plasma/ELF, read-out: fuELF fraction unbound in epithelial lining fluid
Description: as §1

[7] = in vivo; conditions: mouse
[8] = Plasma protein binding by equilibrium dialysis (RED device), rat plasma; assay type: in vitro ADME, Sprague-Dawley rats; conditions: Sprague-Dawley, 0.5 and 5 mg/L, 37 °C, read-out: fuPlasma fraction unbound in plasma
Description: (§2) Plasma protein binding was measured by equilibrium dialysis using a RED device (8 kDa molecular cutoff; Thermo Scientific, Rockford, IL, USA) containing plasma and buffer chambers for dialysis and a base plate. Two concentrations (0.5 and 5 mg/L) of 1599 and 1810 were prepared in mouse plasma from BALB/c mice and rat plasma from Sprague-Dawley rats, and an aliquot of 300 µL was added in the plasma chamber in duplicate. A 500 µL aliquot of PBS was added in the buffer chamber for dialysis. Then, the base plate was covered with sealing tape and incubated at 37 °C at approximately 100 rpm on an orbital shaker for 4 h to achieve equilibrium. After incubation, 50 µL of each sample was pipetted from the plasma and buffer chambers into separate micro-centrifuge tubes. A total of 50 µL of plasma was added to the buffer samples and an equal volume of PBS to the collected plasma samples and vortexed. Samples were processed by protein precipitation and analyzed for bound and unbound drug concentrations by liquid chromatography-tandem mass spectrometry (LC-MS/MS). Ranitidine (0.5 and 5 mg/L) was included as a positive control. The fraction of compound unbound to plasma proteins (fu) was calculated from the measured concentrations in the plasma and buffer chambers using the following equation:(1) fu=1−C(Plasma Chamber)−C(Buffer Chamber)/C(Plasma Chamber)

[9] = Integrated mouse and rat PBPK model, inter-animal variability; conditions: Intravenous Estimate (%RSE); simultaneous fit of mouse and rat plasma and tissue data
[10] = Parallel artificial membrane permeability assay (PAMPA); assay type: in vitro ADME; conditions: passive permeability could not be determined
[11] = Plasma protein binding by equilibrium dialysis (RED device), mouse plasma; assay type: in vitro ADME, BALB/c mice; conditions: BALB/c; Mouse plasma, 0.5 and 5 mg/L, 37 °C, 4 h; read-out: fuPlasma fraction unbound in plasma
Description: as §2

[12] = test system: plasma proteins; test: as above; assay type: in vitro ADME, BALB/c mice; conditions: mouse and rat
Description: as §2

[13] = Intravenous Estimate (%RSE), model fitted to IV single dose 10 mg/kg plasma and tissue data

In the case of CN[C@@H]1[C@H](O)[C@H](NC)[C@H]2O[C@]3(O)[C@H](O[C@@H]2[C@H]1O)O[C@H](C)C[C@H]3NC(=O)Cc1ccc(O)cn1 [Spectinamide 1810, 2-(5-hydroxypyridin-2-yl)-N-((2R,4R,4aS,5aR,6S,7S,8R,9S,9aR,10aS)-4a,7,9-trihydroxy-2-methyl-6,8-bis(methylamino)decahydro-2H-benzo[b]pyrano [2,3-e] [1,4]dioxin-4-yl)acetamide], the “difference in pharmacokinetics between healthy and infected mice” value [1] is listed as “no significant difference”, the “dose dependency of disposition” value ([2]; dose range of 10 to 400 mg/kg in mice) is listed as “did not suggest any dose dependencies” and the “AUCinf Liver Observed” value ([2]; IV QD5 10 mg/kg) is listed as 51.2 µg·h/g. For the same compound, the “AUCinf Liver Observed” value ([2]; IV SD 10 mg/kg) was 31.6 µg·h/g, the “AUCinf Lung Observed” value ([2]; IV QD5 10 mg/kg) was 11.2 µg·h/g and the “AUCinf Lung Observed” value ([2]; IV SD 10 mg/kg) was 5.75 µg·h/g. For the same compound, the “AUCinf Observed” value ([2]; IV QD5 10 mg/kg) was 9450 ng·h/mL, the “AUCinf Observed” value ([2]; IV SD 10 mg/kg) was 7910 ng·h/mL and the “AUCinf Observed” value ([2]; SC QD5 50 mg/kg) was 65500 ng·h/mL. For the same compound, the “AUCinf Observed” value ([2]; SC QD5 200 mg/kg) was 265000 ng·h/mL, the “AUCinf Observed” value ([2]; SC SD 46 mg/kg) was 38600 ng·h/mL and the “AUCinf Observed” value ([2]; SC SD 50 mg/kg) was 67900 ng·h/mL. For the same compound, the “AUCinf Observed” value ([2]; SC SD 200 mg/kg) was 267000 ng·h/mL, the “AUCinf Spleen Observed” value ([2]; IV QD5 10 mg/kg) was 9.45 µg·h/g and the “AUCinf Spleen Observed” value ([2]; IV SD 10 mg/kg) was 4.29 µg·h/g. The AUC(0-inf) [3] was 20800 ng·h/mL, the fraction unbound [4] was 0.95 and the “KC→IKidney 1st order back flux from cellular sub compartment of the kidney” value [5, 13] was 0.097 (45.1) 1/h. For the same compound, the “KC→ILiver 1st order back flux from cellular sub compartment of the liver” value [5, 13] was 0.051 (17.2) 1/h, the “KC→ILung 1st order back flux from cellular sub compartment of the lung” value [5, 13] was 0.076 (17.6) 1/h and the “KC→ISpleen 1st order back flux from cellular sub compartment of the spleen” value [5, 13] was 0.013 (120) 1/h. For the same compound, the “KC→Iothers 1st order back flux from cellular sub compartment of the other tissues” value [5, 13] was 7.0 × 10^−5 (0.00278) 1/h, the “Ka 1st order absorption rate constant” value ([5]; Subcutaneous Estimate (%RSE), healthy mice) was 8.26 (14.5) and the fraction unbound [6] was 0.965. For the same compound, the half-life [7] was 5 min, the bioavailability ([7]; sc) was 100% and the fraction unbound at 4 h [8] was 0.607. The “ω KI→COther inter-animal variability on KI→COthers” value [9] was 0.31 (14.7), the “PAMPA concentrations in the acceptor compartment” value [10] was “below the limit of detection” and the fraction unbound at 4 h [11] was 0.693. For the same compound, the “plasma protein binding” value [12] was “low plasma protein binding”.

Reference: PMC10305115, “Development of a Minimalistic Physiologically Based Pharmacokinetic (mPBPK) Model for the Preclinical Development of Spectinamide Antibiotics” (Pharmaceutics, 2023)
